Test results published in patent publication US8455505B2, “Pyrrolopyrimidinedione and its therapeutic use” (Chiesi Farmaceutici S.p.A., priority 2009, dated 2013).

How the values were obtained:
[1] = test system: HNE Induced Lung Haemorrhage in the Rat; test: HNE induced lung haemorrhage in the rat; assay type: in vivo; conditions: 100 μg/kg i.t., 6 hours prior to HNE, free base, statistically significant
From the text: HNE Induced Lung Haemorrhage in the Rat
Instillation of human neutrophil elastase (HNE) into rat lung causes acute lung damage. The extent of this injury can be assessed by measuring lung haemorrhage.
Male Sprague Dawley rats (175-220 g) were obtained from Harlan UK Ltd., full barrier-bred and certified free from specified micro-organisms on receipt. Animals were weighed and randomly assigned to treatment groups (7-12 animals to per group).
The vehicle used was 1% DMSO/Saline. Inhibitors were dissolved in 1% DMSO before the addition of 0.9% saline.
Animals in each study used to determine the efficacy of the elastase inhibitors delivered locally to the lung by a variety of routes. […]
Once defrosted 100 μl of each lysed cell suspension was placed into a separate well of a 96 well flat bottomed plate. […] The OD of the contents of each well was measured at 415 nm using a spectramax 250 (Molecular devices). […]
The amount of blood in each experimental sample was calculated by comparison to the standard curve. Data were then analysed as below: • 1) The mean OD for duplicates was calculated • 2) The value for the blank was subtracted from the value for all other samples • 3) Data were assessed to evaluate the normality of distribution.

human leukocyte elastase = molecular target: T1, human leukocyte elastase (Homo sapiens, UniProt P08246); test: Enzyme inhibition assay using fluorescent peptide substrate; assay type: biochemical; conditions: MeO-Suc-Ala-Ala-Pro-ValAMC substrate 100 μM, free base, means of two independent experiments
T1 construct: purchased Sigma E8140
T1 sequence (P08246 30-247 limits assumed): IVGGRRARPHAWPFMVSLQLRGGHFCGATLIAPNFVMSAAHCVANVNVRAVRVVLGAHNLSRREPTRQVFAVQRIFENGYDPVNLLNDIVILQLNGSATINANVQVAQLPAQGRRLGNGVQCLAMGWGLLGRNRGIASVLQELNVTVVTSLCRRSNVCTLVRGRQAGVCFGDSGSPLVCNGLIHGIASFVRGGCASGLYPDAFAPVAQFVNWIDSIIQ
Method: Using Fluorescent Peptide Substrate
Assays were performed in 96-well plates at a total assay volume of 100 μl. The final concentration of the enzyme (human leukocyte elastase, Sigma E8140) was 0.00036 units/well. A peptide substrate (MeO-Suc-Ala-Ala-Pro-ValAMC (SEQ ID NO: 1), Calbiochem #324745) was used, at the final concentration of 100 μM. The final concentration of DMSO was 1% in the assay buffer (0.05M Tris.HCl, pH 7.5, 0.1M NaCl; 0.1M CaCl2; 0.0005% brij-35).
The enzymatic reaction was started by adding the enzyme. The enzymatic reaction was performed at RT and after 30 mins stopped by adding 50 μl soybean trypsin inhibitor (Sigma T-9003) at a final concentration of 50 μg/well. Fluorescence was read on the FLEXstation (Molecular Devices) using 380 nm excitation and 460 nm emission filters. […] The results are means of two independent experiments, each performed in duplicate.
The results are means of two independent experiments, each performed in duplicate.

[2] = PK assay: half life in the lung after intra-tracheal administration; assay type: in vivo; conditions: rat, other: intra-tracheal, 10 ug/kg; male Sprague-Dawley rats, single intra-tracheal dose 10 μg/Kg, lung homogenate; free base; read-out: terminal lung t1/2 (converted)
Method: Comparison of the Half Lives in the Lung of the Compound of the Invention and the Compound of Example 18 of WO2007/129060
Test material was formulated at 20 μg/mL in 0.2% Tween 80 in saline. Solutions were sonicated and warmed in a water bath at 40° C. prior to dosing. Male Sprague-Dawley rats received a single intra-tracheal administration of the test material via a Penn-Century dosing needle at the nominal dose level of 10 μg/Kg. After dosing five rats from each group were terminally anaesthetized with sodium pentobarbitone at 1, 2, 4, 8, 24, 72 and 96 hours for compound (IA) (free base) and 1, 4, 8, 24, 72, 96, 168, 264 and 336 for compound (II) (free base) post dose. Blood was sampled from the tail vein, following which the chest was opened, the animal exanguinated by perfusion and the lungs removed and snap frozen. After collection the blood samples were centrifuged (10000×g, 2 min at 4° C.). Plasma was removed and both stored frozen at −20° C. Rat lungs were homogenised in water (on ice) to give a ratio of 1 part lung:2 parts water (w/v). A 100 μL aliquot of each homogenate was extracted by addition of 200 μL acetonitrile containing an analytical internal standard. […]
Test material was analysed on a triple quadrupole mass spectrometer (AB Sciex API 3000) fitted with LC pump and autosampler (Reliance). Test material was detected in positive ion mode Turbo Ion Spray. […]

Row | SMILES | reduction in haemorrhage relative to control [1] [%] | IC50 (human leukocyte elastase) [nM] | half-life [2] [h]
1 | N#Cc1ccc([C@H]2NC(=O)N(c3cccc(C(F)(F)F)c3)C3=C2C(=O)N(CCCNCCCN2CC4=C(C2=O)[C@@H](c2ccc(C#N)nc2)NC(=O)N4c2cccc(C(F)(F)F)c2)C3)cn1 [Compound (IA)] | 95 | 8.4 | 37
2 | N#Cc1ccc([C@H]2NC(=O)N(c3cccc(C(F)(F)F)c3)C3=C2C(=O)N(CCCNCCCN2CC4=C(C2=O)[C@@H](c2ccc(C#N)cc2)NC(=O)N4c2cccc(C(F)(F)F)c2)C3)cc1 [Compound (II)] | 88 | 2.1 | 94
